Laboratory results: article doi:10.64898/2026.09.14.751502v1 (bioRxiv, 2026)

Target: RBP4 (Homo sapiens, UniProt P02753)
Details: read-out: RBP4 – SPA IC50

Compound | IC50
Cc1cc(-c2nnn[nH]2)nc(N2C[C@H]3C[C@@H](c4ccccc4C(F)(F)F)C[C@H]3C2)n1 [BPN-15585] | 7.5 nM
O=C(c1nc2ncccn2n1)N1C[C@H]2C[C@@H](c3ccccc3OC(F)(F)F)C[C@H]2C1 [compound 93] | 41 nM
